Results reported in ChEMBL document CHEMBL3046943, “Synthesis, anti-inflammatory and antimicrobial evaluation of novel N1-(quinolin-4yl)ethane-1,2-diamine phenyl urea derivatives” (2013).
Converted amounts (≈) assume the structure as drawn. The source made the active and inactive calls. No cut-off for these calls is given here.

Key:
Candida albicans [1] = assay: Antifungal activity against Candida albicans MTCC 227 after 2 to 3 days by agar well diffusion method; assay type: functional
Salmonella typhimurium [2] = assay: Antibacterial activity against Salmonella enterica subsp. enterica serovar Typhimurium MTCC 98 after 24 hr by agar well diffusion method; assay type: functional; conditions: MTCC 98, 24 h
Fusarium solani [3] = assay: Antifungal activity against Fusarium solani MTCC 350 after 2 to 3 days by agar well diffusion method; assay type: functional
Staphylococcus aureus [4] = assay: Antibacterial activity against Staphylococcus aureus MTCC 96 after 24 hr by agar well diffusion method; assay type: functional; conditions: MTCC 96, 24 h
Aspergillus niger [5] = assay: Antifungal activity against Aspergillus niger MTCC 281 after 2 to 3 days by agar well diffusion method; assay type: functional
Escherichia coli [6] = assay: Antibacterial activity against Escherichia coli MTCC 443 after 24 hr by agar well diffusion method; assay type: functional; conditions: MTCC 443, 24 h
THP-1 [7] = assay: Anti-inflammatory activity in Homo sapiens (human) THP1 cells assessed as inhibition of LPS-induced IL6 production at 10 uM incubated for 30 min prior to LPS-challenge measured after 24 hr by ELISA relative to control; assay type: functional
Bacillus subtilis [8] = assay: Antibacterial activity against Bacillus subtilis MTCC 441 after 24 hr by agar well diffusion method; assay type: functional; conditions: MTCC 441, 24 h
THP-1 [9] = assay: Anti-inflammatory activity in Homo sapiens (human) THP1 cells assessed as inhibition of LPS-induced TNFalpha production at 10 uM incubated for 30 min prior to LPS-challenge measured after 24 hr by ELISA relative to control; assay type: functional
Aspergillus flavus [10] = assay: Antifungal activity against Aspergillus flavus MTCC 277 after 2 to 3 days by agar well diffusion method; assay type: functional
Candida albicans [11] = assay: Ratio of miconazole MIC to compound MIC for Candida albicans MTCC 227; assay type: functional
Aspergillus flavus [12] = assay: Ratio of miconazole MIC to compound MIC for Aspergillus flavus MTCC 277; assay type: functional
Staphylococcus aureus [13] = assay: Antibacterial activity against Staphylococcus aureus MTCC 96 up to 200 ug/ml after 24 hr by agar well diffusion method; assay type: functional, organism-based
Aspergillus flavus [14] = assay: Antifungal activity against Aspergillus flavus MTCC 277 up to 200 ug/ml after 2 to 3 days by agar well diffusion method; assay type: functional, organism-based
Escherichia coli [15] = assay: Antibacterial activity against Escherichia coli MTCC 443 up to 200 ug/ml after 24 hr by agar well diffusion method; assay type: functional, organism-based
Salmonella typhimurium [16] = assay: Antibacterial activity against Salmonella enterica subsp. enterica serovar Typhimurium MTCC 98 up to 200 ug/ml after 24 hr by agar well diffusion method; assay type: functional, organism-based
Candida albicans [17] = assay: Antifungal activity against Candida albicans MTCC 227 up to 200 ug/ml after 2 to 3 days by agar well diffusion method; assay type: functional, organism-based
Fusarium solani [18] = assay: Antifungal activity against Fusarium solani MTCC 350 up to 200 ug/ml after 2 to 3 days by agar well diffusion method; assay type: functional, organism-based
Bacillus subtilis [19] = assay: Antibacterial activity against Bacillus subtilis MTCC 441 up to 200 ug/ml after 24 hr by agar well diffusion method; assay type: functional, organism-based
Aspergillus niger [20] = assay: Antifungal activity against Aspergillus niger MTCC 281 up to 200 ug/ml after 2 to 3 days by agar well diffusion method; assay type: functional, organism-based
THP-1 [21] = assay: Anti-inflammatory activity in Homo sapiens (human) THP1 cells assessed as inhibition of LPS-induced TNFalpha production at 1 uM incubated for 30 min prior to LPS-challenge measured after 24 hr by ELISA relative to control; assay type: functional
THP-1 [22] = assay: Anti-inflammatory activity in Homo sapiens (human) THP1 cells assessed as inhibition of LPS-induced IL6 production at 1 uM incubated for 30 min prior to LPS-challenge measured after 24 hr by ELISA relative to control; assay type: functional

Row | Structure (SMILES) | MIC (Candida albicans [1]) [µg/mL] | MIC (Salmonella typhimurium [2]) [µg/mL] | MIC (Fusarium solani [3]) [µg/mL] | MIC (Staphylococcus aureus [4]) [µg/mL] | MIC (Aspergillus niger [5]) [µg/mL] | MIC (Escherichia coli [6]) [µg/mL] | inhibition at 10 µM (THP-1 [7]) [%] | MIC (Bacillus subtilis [8]) [µg/mL] | inhibition at 10 µM (THP-1 [9]) [%] | MIC (Aspergillus flavus [10]) [µg/mL] | Activity (Escherichia coli [15]) | Activity (Salmonella typhimurium [16]) | Activity (Bacillus subtilis [19]) | other results
1 | O=C(NCCNc1ccnc2c(F)cc(F)cc12)Nc1cc(C(F)(F)F)ccc1Cl | 20 (≈ 45 µM) | 15 (≈ 33.7 µM) | 20 (≈ 45 µM) | 25 (≈ 56.2 µM) | 15 (≈ 33.7 µM) | 20 (≈ 45 µM) | 80 | 25 (≈ 56.2 µM) | 61 | 20 (≈ 45 µM) |  |  |  | 
2 | O=C(NCCNc1ccnc2c(F)cc(F)cc12)Nc1ccccc1F | 15 (≈ 41.6 µM) | 20 (≈ 55.5 µM) | 20 (≈ 55.5 µM) | 20 (≈ 55.5 µM) | 20 (≈ 55.5 µM) | 15 (≈ 41.6 µM) | 18 | 20 (≈ 55.5 µM) | 11 | 15 (≈ 41.6 µM) |  |  |  | Ratio (Candida albicans [11]): 1.3; Ratio (Aspergillus flavus [12]): 1.3
3 | NCCNc1ccnc2c(F)cc(F)cc12 |  |  |  |  |  |  | 0 |  | 0 |  | inactive | inactive | inactive | Activity (Staphylococcus aureus [13]): inactive; Activity (Aspergillus flavus [14]): inactive; Activity (Candida albicans [17]): inactive; Activity (Fusarium solani [18]): inactive; Activity (Aspergillus niger [20]): inactive
4 | C[C@@H]1C[C@H]2[C@@H]3CCC4=CC(=O)C=C[C@]4(C)[C@@]3(F)[C@@H](O)C[C@]2(C)[C@@]1(O)C(=O)CO [DEXAMETHASONE] |  |  |  |  |  |  |  |  |  |  |  |  |  | inhibition at 1 µM (THP-1 [21]): 72%; inhibition at 1 µM (THP-1 [22]): 86%
5 | O=c1cc[nH]c2c(F)cc(F)cc12 [6,8-DIFLUOROQUINOLIN-4(1H)-ONE] | 90 (≈ 497 µM) |  |  |  |  |  | 0 |  | 0 |  | inactive | inactive | inactive | Activity (Staphylococcus aureus [13]): inactive; Activity (Aspergillus flavus [14]): inactive; Activity (Fusarium solani [18]): inactive; Activity (Aspergillus niger [20]): inactive
6 | Cc1ccc(F)cc1NC(=O)NCCNc1ccnc2c(F)cc(F)cc12 | 25 (≈ 66.8 µM) | 30 (≈ 80.1 µM) | 20 (≈ 53.4 µM) | 25 (≈ 66.8 µM) | 30 (≈ 80.1 µM) | 25 (≈ 66.8 µM) | 40 | 20 (≈ 53.4 µM) | 28 | 20 (≈ 53.4 µM) |  |  |  | 
7 | O=C(NCCNc1ccnc2c(F)cc(F)cc12)Nc1ccccc1OC(F)(F)F | 80 (≈ 188 µM) |  | 90 (≈ 211 µM) |  | 80 (≈ 188 µM) |  | 96 |  | 78 | 80 (≈ 188 µM) | inactive | inactive | inactive | Activity (Staphylococcus aureus [13]): inactive
8 | O=C(O)c1cn(C2CC2)c2cc(N3CCNCC3)c(F)cc2c1=O [CIPROFLOXACIN] |  | 20 (≈ 60.4 µM) |  | 20 (≈ 60.4 µM) |  | 15 (≈ 45.3 µM) |  | 15 (≈ 45.3 µM) |  |  |  |  |  | 
9 | Fc1cc(F)c2nccc(Cl)c2c1 [4-CHLORO-6,8-DIFLUOROQUINOLINE] | 90 (≈ 451 µM) |  |  |  | 90 (≈ 451 µM) |  | 0 |  | 0 | 90 (≈ 451 µM) | inactive | inactive | inactive | Activity (Staphylococcus aureus [13]): inactive; Activity (Fusarium solani [18]): inactive
10 | CC(C)c1ccc(NC(=O)NCCNc2ccnc3c(F)cc(F)cc23)cc1 | 45 (≈ 117 µM) | 30 (≈ 78 µM) | 50 (≈ 130 µM) | 40 (≈ 104 µM) | 35 (≈ 91 µM) | 40 (≈ 104 µM) | 82 | 35 (≈ 91 µM) | 68 | 40 (≈ 104 µM) |  |  |  | 
11 | O=C(NCCNc1ccnc2c(F)cc(F)cc12)Nc1cccc(Cl)c1F | 40 (≈ 101 µM) |  | 60 (≈ 152 µM) | 90 (≈ 228 µM) | 75 (≈ 190 µM) |  | 27 | 90 (≈ 228 µM) | 16 | 30 (≈ 76 µM) |  | inactive |  | 
12 | Cc1ccc(NC(=O)NCCNc2ccnc3c(F)cc(F)cc23)cc1C | 25 (≈ 67.5 µM) | 35 (≈ 94.5 µM) | 20 (≈ 54 µM) | 40 (≈ 108 µM) | 35 (≈ 94.5 µM) | 40 (≈ 108 µM) | 16 | 30 (≈ 81 µM) | 11 | 30 (≈ 81 µM) |  |  |  | 
13 | O=C(NCCNc1ccnc2c(F)cc(F)cc12)Nc1ccc(C(F)(F)F)cc1 | 90 (≈ 219 µM) | 90 (≈ 219 µM) | 90 (≈ 219 µM) | 75 (≈ 183 µM) |  | 90 (≈ 219 µM) | 35 | 90 (≈ 219 µM) | 23 | 90 (≈ 219 µM) |  |  |  | Activity (Aspergillus niger [20]): inactive
14 | O=C(NCCNc1ccnc2c(F)cc(F)cc12)Nc1ccccc1C(F)(F)F | 15 (≈ 36.6 µM) | 15 (≈ 36.6 µM) | 20 (≈ 48.7 µM) | 15 (≈ 36.6 µM) | 10 (≈ 24.4 µM) | 10 (≈ 24.4 µM) | 90 | 10 (≈ 24.4 µM) | 71 | 25 (≈ 60.9 µM) |  |  |  | 
15 | Clc1ccc(COC(Cn2ccnc2)c2ccc(Cl)cc2Cl)c(Cl)c1 (stereo unspecified) [MICONAZOLE] | 20 (≈ 48.1 µM) |  | 15 (≈ 36 µM) |  | 15 (≈ 36 µM) |  |  |  |  | 20 (≈ 48.1 µM) |  |  |  | 
16 | O=C(NCCNc1ccnc2c(F)cc(F)cc12)Nc1ccc(OC(F)(F)F)cc1 | 90 (≈ 211 µM) |  |  | 90 (≈ 211 µM) |  |  | 28 |  | 16 |  | inactive | inactive | inactive | Activity (Aspergillus flavus [14]): inactive; Activity (Fusarium solani [18]): inactive; Activity (Aspergillus niger [20]): inactive
